Test results published in patent US10981932B2, “Macrocyclic indole derivatives” (Bayer Aktiengesellschaft, priority 2016, dated 2021).
Counter-ions that a name gives are not always drawn. Like-named read-outs stand apart in the source and are kept apart here.

How the values were obtained:
NCI-H1703 = test: Anti-proliferative effect (CellTiter-Glo, 72 h), NCI-H1703; type: cell-based; settings: Homo sapiens, NCI-H1703 cells, median, read-out: IC50 antiproliferation assay NCI-H1703 [M] (median)
Description: (§1) The impact of compounds on the proliferation of different cell lines was assessed using the CellTiter-Glo® Luminescent Cell Viability reagent from Promega (G7573). Of note, SUDHL10 and SUDHL5 (DLBCL), NCI-H929 (Multiple Myeloma), A2780 (ovarian carcinoma) as well as MV-4-11(AML) cells are sensitive to MCL-1 inhibition.
(§2) In parallel, cells were plated in a reference (day 0) plate for time zero determination.
(§3) Rim wells were excluded. The cells were incubated for 72 h hours in a humidified incubator at 37° C. The day 0 plate was measured by adding 30 μl/well of CTG solution (CellTiter-Glo® Luminescent Cell Viability reagent, Promega G7573) to time zero wells in the reference plate followed by a 10 minutes incubation and luminescence reading at 0.1 ms, using the PHERAstar FS microplate reader (BMG Labtech).
(§4) After 72 h incubation, the treated plates were measured in the same way as the day 0 plate mentioned above.

MCL-1 = MCL-1 (Homo sapiens, UniProt Q07820); test: Protein-protein interaction assay MCL-1/Noxa BH3 peptide (MCL-1 assay), TR-FRET; type: binding; settings: MBP-MCL-1 / Noxa BH3-derived peptide, median
Method in brief: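 IC50 came from a 4-parameter fit of the normalized 665/620 nm TR-FRET ratio (anti-MBP Eu-cryptate/streptavidin-XL665). Compounds (0.1 nM–20 μM, duplicates) were preincubated 10 min at 22 °C with 1 nM MBP-MCL-1 in pH 7 Tris/NaCl/KF buffer, then read after 1 h at 22 °C plus overnight at 4 °C.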

OPM2 = test: Anti-proliferative effect (CellTiter-Glo, 72 h), OPM2; type: cell-based; settings: OPM2 cells, median, read-out: IC50 antiproliferation assay OPM2 [M] (median)
Method in brief: (§5)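 72 h compound treatment, 37 °C humidified; CellTiter-Glo added, 10 min incubation, luminescence read; day 0 plate read in parallel for baseline.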

SK-MEL-2 = test: Anti-proliferative effect (CellTiter-Glo, 72 h), SK-MEL-2; type: cell-based; settings: Homo sapiens, SK-MEL-2 cells, median, read-out: IC50 antiproliferation assay SK-MEL-2 [M] (median)
Description: Assessment of the Anti-Proliferative Effect of Compounds in Different Cell Lines
as §1, §2, §3, §4

MV-4-11 = test: Anti-proliferative effect (CellTiter-Glo, 72 h), MV-4-11; type: cell-based; settings: MV-4-11 cells, median, read-out: IC50 antiproliferation assay MV-4-11 [M] (median)
Method in brief: as §5

MCL-1, sequence (Q07820 whole entry): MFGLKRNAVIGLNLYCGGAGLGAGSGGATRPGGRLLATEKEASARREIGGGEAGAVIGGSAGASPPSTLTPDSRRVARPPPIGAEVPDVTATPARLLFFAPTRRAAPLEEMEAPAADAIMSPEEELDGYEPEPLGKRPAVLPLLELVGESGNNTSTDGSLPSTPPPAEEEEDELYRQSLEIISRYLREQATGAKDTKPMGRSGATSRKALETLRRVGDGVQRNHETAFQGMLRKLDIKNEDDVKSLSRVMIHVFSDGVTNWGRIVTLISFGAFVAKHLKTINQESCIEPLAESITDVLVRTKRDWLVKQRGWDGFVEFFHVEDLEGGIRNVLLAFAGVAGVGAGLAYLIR

SMILES | IC50 (NCI-H1703) [M] | IC50 (MCL-1) [nM] | IC50 (OPM2) [M] | IC50 (SK-MEL-2) [M] | IC50 (MV-4-11) [M] | IC50 (MV-4-11; Homo sapiens, MV4-11, 72 h) [M] | IC50 (OPM2; Homo sapiens, OPM-2, 72 h) [M]
Cn1nc(COc2ccc(N3CCN(S(C)(=O)=O)CC3)cc2)c2c1COCCCCn1c(C(=O)O)c(CCCOc3cccc4ccccc34)c3cccc-2c31 (single isomer, unassigned; enantiomer 2) [Example 1-10, 1-methyl-3-({4-[4-(methylsulfonyl)piperazin-1-yl]phenoxy}methyl)-7-[3-(naphthalen-1-yloxy)propyl]-1,10,11,12,13,15-hexahydropyrazolo[4′,3′:9,10][1,6]oxazacycloundecino[8,7,6-hi]indole-8-carboxylic acid (enantiomer 2)] | 5.52e-06 | 0.93 | 2.81e-06 | 1.12e-05 | 2.29e-06 |  | 
Cc1c2c(nn1C)COCCCCn1c(C(=O)O)c(CCCOc3cccc4ccccc34)c3cccc-2c31 (single isomer, unassigned; enantiomer 1) [Example 1-37, (+)-2,3-dimethyl-7-[3-(naphthalen-1-yloxy)propyl]-2,10,11,12,13,15-hexahydropyrazolo[4′,3′:9,10][1,6]oxazacycloundecino[8,7,6-hi]indole-8-carboxylic Acid (Enantiomer 1)] |  | 1.72 | 6.53e-06 |  |  | 4.02e-06 | 
Cc1c2c(nn1CCN1CCOCC1)CN(C)CCCn1c(C(=O)O)c(CCCOc3cccc4ccccc34)c3cccc-2c31 (single isomer, unassigned; enantiomer 2) [Example 061, 7,11-dimethyl-10-[2-(morpholin-4-yl)ethyl]-1-[3-(naphthalen-1-yloxy)propyl]-4,5,6,7,8,10-hexahydropyrazolo[3′,4′:7,8][1,5]diazecino[9,10,1-hi]indole-2-carboxylic Acid (Enantiomer 2)] |  | 32.2 | 2.51e-05 |  |  | 8.02e-06 | 
CN1CCCn2c(C(=O)O)c(CCCOc3cccc4ccccc34)c3cccc(c32)-c2c(COc3ccc(N4CCN(S(C)(=O)=O)CC4)cc3)nn(C)c2C1 (single isomer, unassigned; enantiomer 1) [Example 1-46, (+)-7,9-dimethyl-11-({4-[4-(methylsulfonyl)piperazin-1-yl]phenoxy}methyl)-1-[3-(naphthalen-1-yloxy)propyl]-4,5,6,7,8,9-hexahydropyrazolo[3′,4′:7,8][1,5]diazecino[9,10,1-hi]indole-2-carboxylic Acid (Enantiomer 1)] |  | 1.43 | 1.52e-06 |  |  | 7.2e-07 | 
CCc1c2c(nn1C)COCCCCn1c(C(=O)O)c(CCCOc3cccc4ccccc34)c3ccc(C)c-2c31 (single isomer, unassigned; enantiomer 1) [Example 154, 3-Ethyl-2,4-dimethyl-7-[3-(1-naphthyloxy)propyl]-2,10,11,12,13,15-hexahydropyrazolo[4′,3′:9,10][1,6]oxazacycloundecino[8,7,6-hi]indole-8-carboxylic acid-N-ethylethanamine Salt (Enantiomer 1)] | 6.84e-06 | 1.28 |  | 1.84e-05 |  | 1.36e-06 | 2e-06
Cc1ccc2c(CCCOc3cccc4ccccc34)c(C(=O)O)n3c2c1-c1c(nn(C)c1C)CN(C)CCC3 (single isomer, unassigned; enantiomer 2) [Example 074, 7,10,11,12-tetramethyl-1-[3-(naphthalen-1-yloxy)propyl]-4,5,6,7,8,10-hexahydropyrazolo[3′,4′:7,8][1,5]diazecino[9,10,1-hi]indole-2-carboxylic Acid (Enantiomer 2)] |  | 26.9 |  |  |  | 7.04e-06 | 
Cc1nn(C)c2c1-c1cccc3c(CCCOc4cccc5ccccc45)c(C(=O)O)n(c13)CCCN(C)C2 (single isomer, unassigned; enantiomer 1) [Example 1-31, 7,9,11-trimethyl-1-[3-(naphthalen-1-yloxy)propyl]-4,5,6,7,8,9-hexahydropyrazolo[3′,4′:7,8][1,5]diazecino[9,10,1-hi]indole-2-carboxylic Acid-N-ethylethanamine Salt (Enantiomer 1)] |  | 4.62 | 1.05e-05 |  |  | 2.61e-06 | 
Cn1nc(COc2ccc(N3CCN(S(=O)(=O)C4CC4)CC3)cc2)c2c1COCCCCn1c(C(=O)O)c(CCCOc3cccc4ccccc34)c3cccc-2c31 (single isomer, unassigned; enantiomer 2) [Example 1-13, 3-({4-[4-(cyclopropylsulfonyl)piperazin-1-yl]phenoxy}methyl)-1-methyl-7-[3-(naphthalen-1-yloxy)propyl]-1,10,11,12,13,15-hexahydropyrazolo[4′,3′:9,10][1,6]oxazacycloundecino[8,7,6-hi]indole-8-carboxylic Acid (Enantiomer 2)] | 2.67e-06 | 0.796 | 6.34e-07 | 4.96e-06 | 1.35e-06 |  | 
Cc1nn(C)c2c1-c1cccc3c(CCCOc4ccc(F)c5ccccc45)c(C(=O)O)n(c13)CCCCOC2 (single isomer, unassigned; enantiomer 2) [Example 023, 7-{3-[(4-fluoronaphthalen-1-yl)oxy]propyl}-1,3-dimethyl-1,10,11,12,13,15-hexahydropyrazolo[4′3′:9,10][1,6]oxazacycloundecino[8,7,6-hi]indole-8-carboxylic acid-N-ethylethanamine Salt (Enantiomer 2)] |  | 1.69 |  |  |  | 2.29e-06 | 6.79e-06
CN1CCCn2c(C(=O)O)c(CCCOc3cccc4ccccc34)c3cccc(c32)-c2c(COc3ccc(N4CCN(S(=O)(=O)N(C)C)CC4)cc3)nn(C)c2C1 (single isomer, unassigned; enantiomer 1) [Example 1-15, (+)-11-({4-[4-(dimethylsulfamoyl)piperazin-1-yl]phenoxy}methyl)-7,9-dimethyl-1-[3-(naphthalen-1-yloxy)propyl]-4,5,6,7,8,9-hexahydropyrazolo[3′,4′:7,8][1,5]diazecino[9,10,1-hi]indole-2-carboxylic Acid (Enantiomer 1)] | 1.1e-05 | 3.03 | 1.91e-06 | > 3.3e-05 |  | 3.52e-06 | 
CN1CCCn2c(C(=O)O)c(CCCOc3cccc4ccccc34)c3cccc(c32)-c2c(CN3CCOCC3)nn(C)c2C1 (single isomer, unassigned; enantiomer 1) [Example 1-43, (+)-7,9-dimethyl-11-(morpholin-4-ylmethyl)-1-[3-(naphthalen-1-yloxy)propyl]-4,5,6,7,8,9-hexahydropyrazolo[3′,4′:7,8][1,5]diazecino[9,10,1-hi]indole-2-carboxylic Acid (Enantiomer 1)] |  | 7.99 |  |  |  | 6.59e-06 | 1.81e-05
CCc1c2c(nn1C)COCCCCn1c(C(=O)O)c(CCCOc3cccc4ccccc34)c3cccc-2c31 (single isomer, unassigned; enantiomer 1) [Example 148, 3-Ethyl-2-methyl-7-[3-(1-naphthyloxy)propyl]-2,10,11,12,13,15-hexahydropyrazolo[4′,3′:9,10][1,6]oxazacycloundecino[8,7,6-hi]indole-8-carboxylic acid-N-ethylethanamine Salt (Enantiomer 1)] | 9.36e-06 | 0.919 |  | 2.67e-05 |  | 9.73e-07 | 2.74e-06
CCc1c2c(nn1C)CN(C)CCCn1c(C(=O)O)c(CCCOc3cccc4ccccc34)c3ccc(C)c-2c31 (single isomer, unassigned; enantiomer 1) [Example 145, 11-Ethyl-7,10,12-trimethyl-1-[3-(1-naphthyloxy)propyl]-4,5,6,7,8,10-hexahydropyrazolo[3′,4′:7,8][1,5]diazecino[9,10,1-hi]indole-2-carboxylic acid-N-ethylethanamine Salt (Enantiomer 1)] | 6.53e-06 | 1.17 |  | 1.17e-05 |  | 4.3e-06 | 3.22e-06
Cc1nn(C)c2c1-c1cccc3c(CCCOc4cccc5cc(F)ccc45)c(C(=O)O)n(c13)CCCOC2 (single isomer, unassigned; enantiomer 1) [Example 047, 1-{3-[(6-fluoronaphthalen-1-yl)oxy]propyl}-9,11-dimethyl-5,6,8,9-tetrahydro-4H-pyrazolo[4′,3′:8,9][1,5]oxazecino[7,6,5-hi]indole-2-carboxylic acid-N-ethylethanamine Salt (Enantiomer 1)] |  | 2.86 |  |  | 5.38e-06 |  | 
